Results: US20060217370A1, “Compounds useful for the treatment and prevention of pain and screening methods therefor” (priority 2005, published 2006)

Tests used:
Assay in all cases: Receptor Selection and Amplification Technology (R-SAT) functional receptor assay
[1] = biological target: T1, human MrgX2 (Homo sapiens, UniProt Q96LB1); assay type: cell-based; conditions: for Human-X2 Eff(%): efficacy relative to STIA, nr = no response up to 10 micromolar; for EC50: transfected NIH3T3 cells, read-out: Human-X2 pEC50 (converted)
T1 construct: expressed in transfected cells; host or cells: NIH3T3
T1 sequence (Q96LB1 1-330): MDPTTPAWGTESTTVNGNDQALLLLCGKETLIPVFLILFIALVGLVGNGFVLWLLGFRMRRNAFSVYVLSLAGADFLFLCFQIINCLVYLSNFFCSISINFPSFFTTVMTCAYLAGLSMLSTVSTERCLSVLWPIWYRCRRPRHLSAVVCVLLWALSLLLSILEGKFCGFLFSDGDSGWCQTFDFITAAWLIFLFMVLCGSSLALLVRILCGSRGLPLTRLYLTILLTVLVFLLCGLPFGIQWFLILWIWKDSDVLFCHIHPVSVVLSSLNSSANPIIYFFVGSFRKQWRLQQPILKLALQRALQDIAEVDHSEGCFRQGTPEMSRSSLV
Description: (§1) The functional receptor assay, Receptor Selection and Amplification Technology (R-SAT), was used to investigate the pharmacological properties of test compounds on MRGX1 or MRGX2 receptors. R-SAT is disclosed in U.S. Pat. Nos. 5,707,798, 5,912,132, and 5,955,281, each of which is incorporated by reference herein in its entirety, including any drawings.
(§2) Briefly, NIH3T3 cells were grown in 96-well tissue culture plates to 70-80% confluence. Cells were transfected for 16-20 h with plasmid DNAs using Polyfect (Qiagen Inc.) and the manufacturer's protocols. R-SATs were generally performed with 4 ng/well of receptor and 20 ng/well of β-galactosidase plasmid DNA. The human MrgX1, simian MrgX1, human MrgX2 and simian MrgX2 receptor genes were amplified by PCR from genomic DNA using oligodeoxynucleotide primers based on SEQ ID NO:1, SEQ ID NO:3, SEQ ID NO:5, SEQ ID NO:7, or SEQ ID NO:9. For large-scale transfections, cells were transfected for 16-20 h, then trypsinized and frozen in DMSO. Frozen cells were later thawed, plated at ˜10,000 cells per well of a 96 half-area well plate that contained test compound. With both methods, cells were then grown in a humidified atmosphere with 5% ambient CO2 for five days. The medium was then removed from the plates and marker gene activity was measured by the addition of the β-galactosidase substrate o-nitrophenyl β-galactopyranoside (ONPG, in PBS with 0.5% NP-40). The resulting colorimetric reaction was measured in a spectrophotometric plate reader (Titertek Inc.) at 420 nm. All data were analyzed using the computer program XLFit (IDBSm). Efficacy is defined as the percent maximal activation compared to activation by a control compound (BAM22 in the case of human or simian MRGX1, STIA or Cortistatin-14 in the case of human or simian MRGX2). pEC50 is the negative of log(EC50), where EC50 is the calculated molar concentration of test compound that produces 50% of maximum activation.
(§3) Efficacy is reported relative to the ligands Bam22 for MrgX1 and STIA for MrgX2.

[2] = biological target: T2, human MrgX1 (Homo sapiens, UniProt Q96LB2); assay type: cell-based; conditions: for Human-X1 Eff(%): efficacy relative to Bam22, nr = no response up to 10 micromolar
T2 construct: expressed in transfected cells; host or cells: NIH3T3
T2 sequence (Q96LB2 whole entry): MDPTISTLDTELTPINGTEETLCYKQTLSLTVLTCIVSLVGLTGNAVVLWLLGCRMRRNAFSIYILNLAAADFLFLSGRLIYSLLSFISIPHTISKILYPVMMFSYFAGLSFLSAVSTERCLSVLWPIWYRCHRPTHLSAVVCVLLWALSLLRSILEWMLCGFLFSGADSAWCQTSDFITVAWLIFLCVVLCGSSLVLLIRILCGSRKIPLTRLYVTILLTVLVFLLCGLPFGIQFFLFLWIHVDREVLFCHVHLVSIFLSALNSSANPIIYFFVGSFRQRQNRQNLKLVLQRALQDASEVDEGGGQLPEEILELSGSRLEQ
Description: as §1, §2, §3

[3] = biological target: simian MrgX1 (Macaca mulatta, UniProt Q1L4E8, cells depend on it, form not given, species not given); assay type: cell-based, monkey; conditions: efficacy relative to Bam22, nr = no response up to 10 micromolar
simian MrgX1, sequence (Q1L4E8 1-322, change not shown): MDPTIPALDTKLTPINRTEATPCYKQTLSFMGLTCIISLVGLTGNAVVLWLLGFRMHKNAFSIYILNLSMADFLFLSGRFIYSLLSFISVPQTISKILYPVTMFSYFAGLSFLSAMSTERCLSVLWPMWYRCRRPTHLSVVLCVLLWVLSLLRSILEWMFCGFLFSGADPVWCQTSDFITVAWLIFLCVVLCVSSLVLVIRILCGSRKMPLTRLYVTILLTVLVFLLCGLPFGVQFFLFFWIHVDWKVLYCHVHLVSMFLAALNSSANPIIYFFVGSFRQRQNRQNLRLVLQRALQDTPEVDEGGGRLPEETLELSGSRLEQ
Description: as §1
Briefly, NIH3T3 cells were grown in 96-well tissue culture plates to 70-80% confluence. Cells were transfected for 16-20 h with plasmid DNAs using Polyfect (Qiagen Inc.) and the manufacturer's protocols. R-SATs were generally performed with 4 ng/well of receptor and 20 ng/well of β-galactosidase plasmid DNA. The human MrgX1, simian MrgX1, human MrgX2 and simian MrgX2 receptor genes were amplified by PCR from genomic DNA using oligodeoxynucleotide primers based on SEQ ID NO:1, SEQ ID NO:3, SEQ ID NO:5, SEQ ID NO:7, or SEQ ID NO:9. For large-scale transfections, cells were transfected for 16-20 h, then trypsinized and frozen in DMSO. […] The medium was then removed from the plates and marker gene activity was measured by the addition of the β-galactosidase substrate o-nitrophenyl β-galactopyranoside (ONPG, in PBS with 0.5% NP-40). The resulting colorimetric reaction was measured in a spectrophotometric plate reader (Titertek Inc.) at 420 nm. All data were analyzed using the computer program XLFit (IDBSm). […]

Human-X2 Eff(%) [1] [%] | EC50 [1] [µM] | Human-X1 Eff(%) [2] | EC50 ([2]; transfected NIH3T3 cells, read-out: Human-X1 pEC50 (converted)) [µM] | Monkey-X1 Eff(%) [3] | SMILES
98 | 0.316 | 124% | 0.0398 |  | CC[C@H](C)C1C(=O)Nc2ccc(NCCCN(C)C)cc2-c2nc3cc(C(=O)NCc4cccc(C(F)(F)F)c4)ccc3n21 (some centres unmarked) [Mrg-173]
174 | 0.1 | nr |  | nr | CC(C)C1C(=O)Nc2ccc(N3CCN(Cc4ccccc4)CC3)cc2-c2nc3cc(C(=O)N(C)C4CCN(C)CC4)ccc3n21 (centres unmarked) [Mrg-606]
